Assay results: ChEMBL document CHEMBL3044763, “Inhibitory Activities of Rhodanine Derivatives on Plant Growth” (Biosci Biotechnol Biochem, 1996)

What was measured:
[1] = Toxicity in Mus musculus ddY (mouse) assessed as mortality at 450 mg/kg, ip after 4 days; type: organism-based; design: dose 450 mg/kg, route intraperitoneal; details: in vivo
[2] = system: Brassica rapa subsp. oleifera; experiment: Growth inhibition of Brassica rapa subsp. oleifera assessed as total chlorophyll level at 5 x 10^-5 M after 7 days; type: functional; design: scale not given: the % may be the effect or the level left
[3] = system: Brassica rapa subsp. oleifera; experiment: Growth inhibition of Brassica rapa subsp. oleifera assessed as chlorophyll b level at 3 x 10^-4 M after 7 days; type: functional; design: scale not given: the % may be the effect or the level left
[4] = Toxicity in Mus musculus ddY (mouse) assessed as mortality at 400 mg/kg, ip after 1 day; type: organism-based; design: dose 400 mg/kg, route intraperitoneal; details: in vivo
[5] = Toxicity in Mus musculus ddY (mouse) assessed as mortality at 500 mg/kg, ip after 4 days; type: organism-based; design: dose 500 mg/kg, route intraperitoneal; details: in vivo
[6] = Toxicity in Mus musculus ddY (mouse) assessed as mortality at 600 mg/kg, ip after 2 days; type: organism-based; design: dose 600 mg/kg, route intraperitoneal; details: in vivo
[7] = Toxicity in Mus musculus ddY (mouse) assessed as mortality at 400 mg/kg, ip after 7 days; type: organism-based; design: dose 400 mg/kg, route intraperitoneal; details: in vivo
[8] = system: Brassica rapa subsp. oleifera; experiment: Growth inhibition of Brassica rapa subsp. oleifera assessed as chlorophyll a level at 1 x 10^-4 M after 7 days; type: functional; design: scale not given: the % may be the effect or the level left
[9] = system: Brassica rapa subsp. oleifera; experiment: Growth inhibition of Brassica rapa subsp. oleifera assessed as chlorophyll b level at 1 x 10^-4 M after 7 days; type: functional; design: scale not given: the % may be the effect or the level left
[10] = Toxicity in Mus musculus ddY (mouse) assessed as mortality at 600 mg/kg, ip after 4 days; type: organism-based; design: dose 600 mg/kg, route intraperitoneal; details: in vivo
[11] = Toxicity in Mus musculus ddY (mouse) assessed as mortality at 450 mg/kg, ip after 1 day; type: organism-based; design: dose 450 mg/kg, route intraperitoneal; details: in vivo
[12] = system: Brassica rapa subsp. oleifera; experiment: Growth inhibition of Brassica rapa subsp. oleifera assessed as chlorophyll a level at 3 x 10^-4 M after 7 days; type: functional; design: scale not given: the % may be the effect or the level left
[13] = Toxicity in Mus musculus ddY (mouse) assessed as mortality at 500 mg/kg, ip after 6 days; type: organism-based; design: dose 500 mg/kg, route intraperitoneal; details: in vivo
[14] = Toxicity in Mus musculus ddY (mouse) assessed as mortality at 650 mg/kg, ip after 7 days; type: organism-based; design: dose 650 mg/kg, route intraperitoneal; details: in vivo
[15] = Toxicity in Mus musculus ddY (mouse) assessed as mortality at 600 mg/kg, ip after 3 days; type: organism-based; design: dose 600 mg/kg, route intraperitoneal; details: in vivo
[16] = Toxicity in Mus musculus ddY (mouse) assessed as mortality at 650 mg/kg, ip after 2 days; type: organism-based; design: dose 650 mg/kg, route intraperitoneal; details: in vivo
[17] = Toxicity in Mus musculus ddY (mouse) assessed as mortality at 400 mg/kg, ip after 3 days; type: organism-based; design: dose 400 mg/kg, route intraperitoneal; details: in vivo
[18] = Toxicity in Mus musculus ddY (mouse) assessed as mortality at 500 mg/kg, ip after 5 days; type: organism-based; design: dose 500 mg/kg, route intraperitoneal; details: in vivo
[19] = Toxicity in Mus musculus ddY (mouse) assessed as mortality at 550 mg/kg, ip after 4 days; type: organism-based; design: dose 550 mg/kg, route intraperitoneal; details: in vivo
[20] = Toxicity in Mus musculus ddY (mouse) assessed as mortality at 550 mg/kg, ip after 3 days; type: organism-based; design: dose 550 mg/kg, route intraperitoneal; details: in vivo
[21] = Toxicity in Mus musculus ddY (mouse) assessed as mortality at 600 mg/kg, ip after 7 days; type: organism-based; design: dose 600 mg/kg, route intraperitoneal; details: in vivo
[22] = Toxicity in Mus musculus ddY (mouse) assessed as mortality at 550 mg/kg, ip after 7 days; type: organism-based; design: dose 550 mg/kg, route intraperitoneal; details: in vivo
[23] = Toxicity in Mus musculus ddY (mouse) assessed as mortality at 500 mg/kg, ip after 3 days; type: organism-based; design: dose 500 mg/kg, route intraperitoneal; details: in vivo
[24] = Toxicity in Mus musculus ddY (mouse) assessed as mortality at 450 mg/kg, ip after 7 days; type: organism-based; design: dose 450 mg/kg, route intraperitoneal; details: in vivo
[25] = Toxicity in Mus musculus ddY (mouse) assessed as mortality at 500 mg/kg, ip after 1 day; type: organism-based; design: dose 500 mg/kg, route intraperitoneal; details: in vivo
[26] = Toxicity in Mus musculus ddY (mouse) assessed as mortality at 550 mg/kg, ip after 6 days; type: organism-based; design: dose 550 mg/kg, route intraperitoneal; details: in vivo
[27] = Toxicity in Mus musculus ddY (mouse) assessed as mortality at 550 mg/kg, ip after 1 day; type: organism-based; design: dose 550 mg/kg, route intraperitoneal; details: in vivo
[28] = Toxicity in Mus musculus ddY (mouse) assessed as mortality at 400 mg/kg, ip after 2 days; type: organism-based; design: dose 400 mg/kg, route intraperitoneal; details: in vivo
[29] = system: Brassica rapa subsp. oleifera; experiment: Growth inhibition of Brassica rapa subsp. oleifera assessed as root growth at 3 x 10^-4 M after 7 days; type: functional
[30] = system: Brassica rapa subsp. oleifera; experiment: Growth inhibition of Brassica rapa subsp. oleifera assessed as chlorophyll b level at 5 x 10^-5 M after 7 days; type: functional; design: scale not given: the % may be the effect or the level left
[31] = system: Brassica rapa subsp. oleifera; experiment: Growth inhibition of Brassica rapa subsp. oleifera assessed as root growth at 1 x 10^-4 M after 7 days; type: functional
[32] = system: Brassica rapa subsp. oleifera; experiment: Growth inhibition of Brassica rapa subsp. oleifera assessed as total chlorophyll level at 3 x 10^-4 M after 7 days; type: functional; design: scale not given: the % may be the effect or the level left
[33] = Toxicity in Mus musculus ddY (mouse) assessed as mortality at 550 mg/kg, ip after 2 days; type: organism-based; design: dose 550 mg/kg, route intraperitoneal; details: in vivo
[34] = system: Brassica rapa subsp. oleifera; experiment: Growth inhibition of Brassica rapa subsp. oleifera assessed as total chlorophyll level at 1 x 10^-4 M after 7 days; type: functional; design: scale not given: the % may be the effect or the level left
[35] = Toxicity in Mus musculus ddY (mouse) assessed as mortality at 450 mg/kg, ip after 3 days; type: organism-based; design: dose 450 mg/kg, route intraperitoneal; details: in vivo
[36] = system: Brassica rapa subsp. oleifera; experiment: Growth inhibition of Brassica rapa subsp. oleifera assessed as chlorophyll b level at 3 x 10^-5 M after 7 days; type: functional; design: scale not given: the % may be the effect or the level left
[37] = Toxicity in Mus musculus ddY (mouse) assessed as mortality at 450 mg/kg, ip after 6 days; type: organism-based; design: dose 450 mg/kg, route intraperitoneal; details: in vivo
[38] = Toxicity in Mus musculus ddY (mouse) assessed as mortality at 650 mg/kg, ip after 4 days; type: organism-based; design: dose 650 mg/kg, route intraperitoneal; details: in vivo
[39] = Toxicity in Mus musculus ddY (mouse) assessed as mortality at 400 mg/kg, ip after 5 days; type: organism-based; design: dose 400 mg/kg, route intraperitoneal; details: in vivo
[40] = system: Brassica rapa subsp. oleifera; experiment: Growth inhibition of Brassica rapa subsp. oleifera assessed as chlorophyll a level at 3 x 10^-5 M after 7 days; type: functional; design: scale not given: the % may be the effect or the level left
[41] = system: Brassica rapa subsp. oleifera; experiment: Growth inhibition of Brassica rapa subsp. oleifera assessed as root growth at 3 x 10^-5 M after 7 days; type: functional
[42] = Toxicity in Mus musculus ddY (mouse) assessed as mortality at 650 mg/kg, ip after 3 days; type: organism-based; design: dose 650 mg/kg, route intraperitoneal; details: in vivo
[43] = Toxicity in Mus musculus ddY (mouse) assessed as mortality at 650 mg/kg, ip after 5 days; type: organism-based; design: dose 650 mg/kg, route intraperitoneal; details: in vivo
[44] = Toxicity in Mus musculus ddY (mouse) assessed as mortality at 600 mg/kg, ip after 1 day; type: organism-based; design: dose 600 mg/kg, route intraperitoneal; details: in vivo
[45] = Toxicity in Mus musculus ddY (mouse) assessed as mortality at 500 mg/kg, ip after 7 days; type: organism-based; design: dose 500 mg/kg, route intraperitoneal; details: in vivo
[46] = Toxicity in Mus musculus ddY (mouse) assessed as mortality at 650 mg/kg, ip after 6 days; type: organism-based; design: dose 650 mg/kg, route intraperitoneal; details: in vivo
[47] = Toxicity in Mus musculus ddY (mouse) assessed as mortality at 600 mg/kg, ip after 5 days; type: organism-based; design: dose 600 mg/kg, route intraperitoneal; details: in vivo
[48] = system: Brassica rapa subsp. oleifera; experiment: Growth inhibition of Brassica rapa subsp. oleifera assessed as total chlorophyll level at 3 x 10^-5 M after 7 days; type: functional; design: scale not given: the % may be the effect or the level left
[49] = Toxicity in Mus musculus ddY (mouse) assessed as mortality at 450 mg/kg, ip after 2 days; type: organism-based; design: dose 450 mg/kg, route intraperitoneal; details: in vivo
[50] = Toxicity in Mus musculus ddY (mouse) assessed as mortality at 550 mg/kg, ip after 5 days; type: organism-based; design: dose 550 mg/kg, route intraperitoneal; details: in vivo
[51] = Toxicity in Mus musculus ddY (mouse) assessed as mortality at 450 mg/kg, ip after 5 days; type: organism-based; design: dose 450 mg/kg, route intraperitoneal; details: in vivo
[52] = Toxicity in Mus musculus ddY (mouse) assessed as mortality at 600 mg/kg, ip after 6 days; type: organism-based; design: dose 600 mg/kg, route intraperitoneal; details: in vivo
[53] = system: Brassica rapa subsp. oleifera; experiment: Growth inhibition of Brassica rapa subsp. oleifera assessed as root growth at 5 x 10^-5 M after 7 days; type: functional
[54] = Toxicity in Mus musculus ddY (mouse) assessed as mortality at 650 mg/kg, ip after 1 day; type: organism-based; design: dose 650 mg/kg, route intraperitoneal; details: in vivo
[55] = Toxicity in Mus musculus ddY (mouse) assessed as mortality at 500 mg/kg, ip after 2 days; type: organism-based; design: dose 500 mg/kg, route intraperitoneal; details: in vivo
[56] = system: Brassica rapa subsp. oleifera; experiment: Growth inhibition of Brassica rapa subsp. oleifera assessed as chlorophyll a level at 5 x 10^-5 M after 7 days; type: functional; design: scale not given: the % may be the effect or the level left
[57] = Toxicity in Mus musculus ddY (mouse) assessed as mortality at 400 mg/kg, ip after 4 days; type: organism-based; design: dose 400 mg/kg, route intraperitoneal; details: in vivo
[58] = Toxicity in Mus musculus ddY (mouse) assessed as mortality at 400 mg/kg, ip after 6 days; type: organism-based; design: dose 400 mg/kg, route intraperitoneal; details: in vivo
[59] = Toxicity in ip dosed Mus musculus ddY (mouse) assessed as mortality after 1 to 7 days; type: organism-based; details: in vivo

## O=C(O)CN1C(=O)CSC1=S [RHODANINE-3-ACETIC ACID]
[1]
  mortality at 96 h: 20%
[2]
  Activity: 24.42%
[3]
  Activity: 3.76%
[4]
  mortality at 24 h: 0%
[5]
  mortality at 96 h: 20%
[6]
  mortality at 48 h: 60%
[7]
  mortality at 168 h: 0%
[8]
  Activity: 14.1%
[9]
  Activity: 5.48%
[10]
  mortality at 96 h: 80%
[11]
  mortality at 24 h: 0%
[12]
  Activity: 10.17%
[13]
  mortality at 144 h: 40%
[14]
  mortality at 168 h: 100%
[15]
  mortality at 72 h: 60%
[16]
  mortality at 48 h: 100%
[17]
  mortality at 72 h: 0%
[18]
  mortality at 120 h: 20%
[19]
  mortality at 96 h: 80%
[20]
  mortality at 72 h: 40%
[21]
  mortality at 168 h: 80%
[22]
  mortality at 168 h: 80%
[23]
  mortality at 72 h: 20%
[24]
  mortality at 168 h: 20%
[25]
  mortality at 24 h: 0%
[26]
  mortality at 144 h: 80%
[27]
  mortality at 24 h: 0%
[28]
  mortality at 48 h: 0%
[29]
  Activity: 18.3 mm
[30]
  Activity: 7.35%
[31]
  Activity: 39.8 mm
[32]
  Activity: 13.99%
[33]
  mortality at 48 h: 0%
[34]
  Activity: 19.57%
[35]
  mortality at 72 h: 0%
[36]
  Activity: 7.05%
[37]
  mortality at 144 h: 20%
[38]
  mortality at 96 h: 100%
[39]
  mortality at 120 h: 0%
[40]
  Activity: 18.01%
[41]
  Root length: 57 mm
[42]
  mortality at 72 h: 100%
[43]
  mortality at 120 h: 100%
[44]
  mortality at 24 h: 20%
[45]
  mortality at 168 h: 40%
[46]
  mortality at 144 h: 100%
[47]
  mortality at 120 h: 80%
[48]
  Activity: 25.06%
[49]
  mortality at 48 h: 0%
[50]
  mortality at 120 h: 80%
[51]
  mortality at 120 h: 20%
[52]
  mortality at 144 h: 80%
[53]
  Root length: 57.1 mm
[54]
  mortality at 24 h: 20%
[55]
  mortality at 48 h: 20%
[56]
  Activity: 17.08%
[57]
  mortality at 96 h: 0%
[58]
  mortality at 144 h: 0%
[59]
  LD50: 510 mg/kg
